According to ChEMBL document CHEMBL1157978, “In vivo wound-healing activity of oleanolic acid derived from the acid hydrolysis of Anredera diffusa” (2006):

What was measured:
Assay type in all cases: functional
Mus musculus [1] = experiment: Cicatrizant activity against mouse measured by wound breaking strength at 12.5 mg/ml administered every 12 hrs measured after 48 hrs relative to control
Mus musculus [2] = experiment: Cicatrizant activity against mouse measured by wound breaking strength at 60 ug/g administered every 12 hrs measured after 48 hrs relative to control
Mus musculus [3] = experiment: Cicatrizant activity against mouse measured by wound breaking strength at 30 ug/g administered every 12 hrs measured after 48 hrs relative to control
Mus musculus [4] = experiment: Cicatrizant activity against mouse measured by wound breaking strength at 40 ug/g administered every 12 hrs measured after 48 hrs relative to control
Mus musculus [5] = experiment: Cicatrizant activity against mouse measured by wound breaking strength at 50 ug/g administered every 12 hrs measured after 48 hrs relative to control
Mus musculus [6] = experiment: Cicatrizant activity against mouse measured by wound breaking strength at 50 mg/ml administered every 12 hrs measured after 48 hrs relative to control
Mus musculus [7] = experiment: Cicatrizant activity against mouse assessed as wound breaking strength per gram of body weight administered every 12 hrs measured after 48 hrs relative to control

SMILES: CC1(C)CC[C@]2(C(=O)O)CC[C@]3(C)C(=CC[C@@H]4[C@@]5(C)CC[C@H](O)C(C)(C)[C@@H]5CC[C@]43C)[C@@H]2C1 [OLEANOLIC_ACID]
- Activity (Mus musculus [1]): 42.9%
- Activity (Mus musculus [2]): 26.2%
- Activity (Mus musculus [3]): 25.4%
- Activity (Mus musculus [4]): 39.3%
- Activity (Mus musculus [5]): 30.9%

SMILES: CC(C)=CCC[C@@](C)(O)[C@@H]1CC=C(C)CC1
- Activity (Mus musculus [6]): 17.6%
- ED50 (Mus musculus [7]): 155 µg
